Measured values reported in ChEMBL document CHEMBL4184275 (Bioorg Med Chem Lett, 2018).
Bridge positions count the residues as written; N and C are the ends. Peptide text beside a SMILES is read from it.

Columns and labels:
[1] = biological target: T1, Prolyl oligopeptidase family protein (Flavobacterium psychrophilum (strain JIP02/86 / ATCC 49511), UniProt A6H249); assay: Inhibition of Flavobacterium POP preincubated for 5 mins followed by Z-Gly-Pro-pNA substrate measured after 30 mins
T1 sequence (A6H249 whole entry): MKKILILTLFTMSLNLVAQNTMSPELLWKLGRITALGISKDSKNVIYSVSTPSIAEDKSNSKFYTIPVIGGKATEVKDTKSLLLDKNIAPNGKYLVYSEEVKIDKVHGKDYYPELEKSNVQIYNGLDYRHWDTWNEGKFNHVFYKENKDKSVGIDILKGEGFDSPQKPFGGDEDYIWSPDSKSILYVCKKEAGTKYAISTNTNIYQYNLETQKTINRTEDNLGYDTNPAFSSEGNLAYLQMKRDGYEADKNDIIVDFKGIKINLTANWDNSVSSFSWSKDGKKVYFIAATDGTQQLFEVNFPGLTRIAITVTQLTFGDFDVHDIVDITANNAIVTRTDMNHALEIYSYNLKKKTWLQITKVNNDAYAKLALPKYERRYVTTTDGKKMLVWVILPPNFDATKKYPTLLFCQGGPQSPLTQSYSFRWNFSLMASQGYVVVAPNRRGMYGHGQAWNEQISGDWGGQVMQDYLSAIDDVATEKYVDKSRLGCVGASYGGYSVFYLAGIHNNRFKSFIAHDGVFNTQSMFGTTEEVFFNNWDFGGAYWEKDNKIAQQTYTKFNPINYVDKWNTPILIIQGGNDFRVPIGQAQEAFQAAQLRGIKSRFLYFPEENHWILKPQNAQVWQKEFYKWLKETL

MCF7 = assay: Antiproliferative activity against human MCF7 cells; format: functional, cell-based
HL-60 = assay: cells; details: Homo sapiens
Description: Antiproliferative activity against human HL60 cells

Prolyl endopeptidase = biological target: T2, Prolyl endopeptidase (Homo sapiens, UniProt P48147); assay: Inhibition of prolyl oligopeptidase (unknown origin)
T2 sequence (P48147 whole entry): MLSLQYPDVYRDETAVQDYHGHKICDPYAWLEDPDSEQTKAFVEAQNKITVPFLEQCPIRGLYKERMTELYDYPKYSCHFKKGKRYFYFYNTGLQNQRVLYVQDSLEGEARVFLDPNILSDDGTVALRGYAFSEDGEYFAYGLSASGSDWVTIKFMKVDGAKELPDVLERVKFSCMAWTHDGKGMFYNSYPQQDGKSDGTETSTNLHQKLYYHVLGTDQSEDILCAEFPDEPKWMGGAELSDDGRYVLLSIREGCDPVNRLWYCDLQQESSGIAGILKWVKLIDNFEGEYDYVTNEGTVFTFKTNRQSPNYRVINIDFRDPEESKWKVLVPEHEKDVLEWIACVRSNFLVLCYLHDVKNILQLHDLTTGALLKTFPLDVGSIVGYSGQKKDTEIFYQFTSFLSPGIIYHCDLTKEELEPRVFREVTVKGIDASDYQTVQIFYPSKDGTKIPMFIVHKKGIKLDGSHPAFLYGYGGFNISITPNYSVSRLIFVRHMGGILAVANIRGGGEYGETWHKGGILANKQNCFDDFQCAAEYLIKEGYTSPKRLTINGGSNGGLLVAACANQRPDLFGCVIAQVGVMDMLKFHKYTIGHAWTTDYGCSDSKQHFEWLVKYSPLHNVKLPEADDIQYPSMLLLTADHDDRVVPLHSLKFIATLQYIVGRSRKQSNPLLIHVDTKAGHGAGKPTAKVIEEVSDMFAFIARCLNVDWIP

| IC50 [1] [µM] | IC50 (MCF7) [µM] | IC50 (HL-60) [µM] | IC50 (Prolyl endopeptidase) [µM] | Structure (SMILES) |
| --- | --- | --- | --- | --- |
| 0.77 | 26.9 | 2 | – | CC(=O)Oc1c(OC(C)=O)c2c3cc(O)c(O)cc3oc2c2oc3cc(O)c(O)cc3c12 |
| – | – | > 20 | 0.95 | CC[C@H](C)[C@H](NC(=O)[C@H](Cc1ccccc1)NC(=O)[C@@H](NC(=O)[C@H](Cc1cnc[nH]1)NC(=O)CNC(=O)CNC(=O)[C@H](Cc1ccccc1)NC(=O)[C@H](CC(C)C)NC(=O)[C@@H]1CC(=O)NCC(=O)N[C@@H](Cc2ccc(O)cc2)C(=O)N2CCC[C@H]2C(=O)N[C@@H](Cc2c[nH]c3ccccc23)C(=O)N[C@@H](Cc2c[nH]c3ccccc23)C(=O)N[C@@H](CC(=O)O)C(=O)N[C@@H](Cc2ccc(O)cc2)C(=O)N[C@@H](CCCNC(=N)N)C(=O)N1)[C@@H](C)O)C(=O)N[C@@H](CO)C(=O)N1CCC[C@H]1C(=O)O (GYPWWDYRDLFGGHTFISP-OH; lactam N-9) |
| 1.2 | 35.1 | 1.1 | – | CC(=O)Oc1c2oc3cc(O)c(O)cc3c2c(OC(C)=O)c2oc3cc(O)c(O)cc3c12 [POLYOZELLIN] |

| Structure (SMILES) | IC50 [1] [µM] | IC50 (MCF7) [µM] | IC50 (HL-60) [µM] | IC50 (Prolyl endopeptidase) [µM] |
| --- | --- | --- | --- | --- |
| CC[C@@]1(O)C(=O)OCc2c1cc1n(c2=O)Cc2cc3ccccc3nc2-1 [CAMPTOTHECIN] | – | – | 0.0067 | – |
